In ChEMBL document CHEMBL4138123, “Design, synthesis and biological evaluation of novel pyrazolochalcones as potential modulators of PI3K/Akt/mTOR pathway and inducers of apoptosis in breast cancer cells” (Eur J Med Chem, 2017):

Key:
Assay type in all cases: functional
[1] = test system: U-251; assay: Cytotoxicity against human U251 cells assessed as growth inhibition after 48 hrs by sulforhodamine B assay; settings: U-251, 48 h
[2] = test system: Malme-3M; assay: Cytotoxicity against human MALME-3M cells assessed as growth inhibition after 48 hrs by sulforhodamine B assay
[3] = test system: HT-29; assay: Cytotoxicity against human HT-29 cells assessed as cell growth at 0.01 uM after 48 hrs by sulforhodamine B assay relative to control; settings: HT-29, 48 h, read-out: Activity
[4] = test system: ACHN; assay: Cytotoxicity against human ACHN cells assessed as growth inhibition after 48 hrs by sulforhodamine B assay
[5] = test system: SF-268; assay: Cytotoxicity against human SF268 cells assessed as cell growth at 10 uM after 48 hrs by sulforhodamine B assay relative to control; settings: SF-268, 48 h, read-out: Activity
[6] = test system: NCI/ADR-RES; assay: Cytotoxicity against human NCI/ADR-RES cells assessed as cell growth at 0.01 uM after 48 hrs by sulforhodamine B assay relative to control; settings: read-out: Activity
[7] = test system: UACC-62; assay: Cytotoxicity against human UACC62 cells assessed as cell growth at 0.01 uM after 48 hrs by sulforhodamine B assay relative to control; settings: UACC-62, 48 h, read-out: Activity
[8] = test system: OVCAR-5; assay: Cytotoxicity against human OVCAR5 cells assessed as cell growth at 1 uM after 48 hrs by sulforhodamine B assay relative to control; settings: OVCAR-5, 48 h, read-out: Activity
[9] = test system: HCT-116; assay: Cytotoxicity against human HCT116 cells assessed as cell growth at 0.01 uM after 48 hrs by sulforhodamine B assay relative to control; settings: HCT-116, 48 h, read-out: Activity
[10] = test system: ACHN; assay: Cytotoxicity against human ACHN cells assessed as cell growth at 10 uM after 48 hrs by sulforhodamine B assay relative to control; settings: read-out: Activity
[11] = test system: SK-MEL-2; assay: Cytotoxicity against human SK-MEL-2 cells assessed as growth inhibition after 48 hrs by sulforhodamine B assay; settings: SK-MEL-2, 48 h
[12] = test system: T47D; assay: Cytotoxicity against human T47D cells assessed as cell growth at 10 uM after 48 hrs by sulforhodamine B assay relative to control; settings: read-out: Activity
[13] = test system: 786-0; assay: Cytotoxicity against human 786-0 cells assessed as cell growth at 10 uM after 48 hrs by sulforhodamine B assay relative to control; settings: 786-0, 48 h, read-out: Activity
[14] = test system: COLO 205; assay: Cytotoxicity against human COLO205 cells assessed as growth inhibition after 48 hrs by sulforhodamine B assay; settings: COLO 205, 48 h
[15] = test system: HL-60(TB); assay: Cytotoxicity against human HL-60(TB) cells assessed as cell growth at 1 uM after 48 hrs by sulforhodamine B assay relative to control; settings: HL-60, 48 h, read-out: Activity
[16] = test system: BT-549; assay: Cytotoxicity against human BT549 cells assessed as cell growth at 10 uM after 48 hrs by sulforhodamine B assay relative to control; settings: BT-549, 48 h, read-out: Activity
[17] = test system: NCI-H226; assay: Cytotoxicity against human NCI-H226 cells assessed as growth inhibition after 48 hrs by sulforhodamine B assay; settings: NCI-H226, 48 h
[18] = test system: OVCAR-5; assay: Cytotoxicity against human OVCAR5 cells assessed as growth inhibition after 48 hrs by sulforhodamine B assay; settings: OVCAR-5, 48 h
[19] = test system: BT-549; assay: Cytotoxicity against human BT549 cells assessed as cell growth at 0.1 uM after 48 hrs by sulforhodamine B assay relative to control; settings: BT-549, 48 h, read-out: Activity
[20] = test system: T47D; assay: Cytotoxicity against human T47D cells assessed as cell growth at 1 uM after 48 hrs by sulforhodamine B assay relative to control; settings: read-out: Activity
[21] = test system: MCF7; assay: Cytotoxicity against human MCF7 cells assessed as cell growth at 0.01 uM after 48 hrs by sulforhodamine B assay relative to control; settings: MCF7, 48 h, read-out: Activity
[22] = test system: K562; assay: Cytotoxicity against human K562 cells assessed as growth inhibition after 48 hrs by sulforhodamine B assay; settings: K562, 48 h
[23] = test system: Malme-3M; assay: Cytotoxicity against human MALME-3M cells assessed as cell growth at 1 uM after 48 hrs by sulforhodamine B assay relative to control; settings: read-out: Activity
[24] = test system: SNB-19; assay: Cytotoxicity against human SNB19 cells assessed as cell growth at 0.01 uM after 48 hrs by sulforhodamine B assay relative to control; settings: SNB-19, 48 h, read-out: Activity
[25] = test system: DU-145; assay: Cytotoxicity against human DU145 cells assessed as cell growth at 0.1 uM after 48 hrs by sulforhodamine B assay relative to control; settings: DU-145, 48 h, read-out: Activity
[26] = test system: TK-10; assay: Cytotoxicity against human TK10 cells assessed as growth inhibition after 48 hrs by sulforhodamine B assay; settings: TK-10, 48 h
[27] = test system: ACHN; assay: Cytotoxicity against human ACHN cells assessed as cell growth at 100 uM after 48 hrs by sulforhodamine B assay relative to control; settings: read-out: Activity
[28] = test system: RPMI-8226; assay: Cytotoxicity against human RPMI8226 cells assessed as cell growth at 0.1 uM after 48 hrs by sulforhodamine B assay relative to control; settings: RPMI-8226, 48 h, read-out: Activity
[29] = test system: NCI-H460; assay: Cytotoxicity against human NCI-H460 cells assessed as cell growth at 0.01 uM after 48 hrs by sulforhodamine B assay relative to control; settings: NCI-H460, 48 h, read-out: Activity
[30] = test system: PC-3; assay: Cytotoxicity against human PC3 cells assessed as cell growth at 10 uM after 48 hrs by sulforhodamine B assay relative to control; settings: PC-3, 48 h, read-out: Activity
[31] = test system: M14; assay: Cytotoxicity against human M14 cells assessed as cell growth at 0.01 uM after 48 hrs by sulforhodamine B assay relative to control; settings: M14, 48 h, read-out: Activity
[32] = test system: MDA-MB-468; assay: Cytotoxicity against human MDA-MB-468 cells assessed as cell growth at 1 uM after 48 hrs by sulforhodamine B assay relative to control; settings: MDA-MB-468, 48 h, read-out: Activity
[33] = test system: SK-MEL-28; assay: Cytotoxicity against human SK-MEL-28 cells assessed as cell growth at 0.1 uM after 48 hrs by sulforhodamine B assay relative to control; settings: SK-MEL-28, 48 h, read-out: Activity
[34] = test system: NCI-H226; assay: Cytotoxicity against human NCI-H226 cells assessed as cell growth at 1 uM after 48 hrs by sulforhodamine B assay relative to control; settings: NCI-H226, 48 h, read-out: Activity
[35] = test system: BT-549; assay: Cytotoxicity against human BT549 cells assessed as cell growth at 1 uM after 48 hrs by sulforhodamine B assay relative to control; settings: BT-549, 48 h, read-out: Activity
[36] = test system: HOP-62; assay: Cytotoxicity against human HOP62 cells assessed as cell growth at 0.01 uM after 48 hrs by sulforhodamine B assay relative to control; settings: HOP-62, 48 h, read-out: Activity

`COc1ccc(-c2cc(/C=C/C(=O)c3ccc(N)cc3)[nH]n2)cc1OC` showed a GI50 [1] of 1.74 µM, an LC50 [1] of 7.69 µM and a TGI [1] of 3.66 µM. The GI50 [2] was 6.72 µM, the LC50 [2] was 59.2 µM and the TGI [2] was 21.2 µM. The growth at 0.01 µM [3] was 98%, the GI50 [4] was 1.67 µM and the LC50 [4] was 6.48 µM. For the same molecule, the TGI [4] was 3.29 µM, the growth at 10 µM [5] was -49% and the growth at 0.01 µM [6] was 102%. For the same molecule, the growth at 0.01 µM [7] was 99%, the growth at 1 µM [8] was 94% and the growth at 0.01 µM [9] was 96%. The growth at 10 µM [10] was -82%, the GI50 [11] was 8.44 µM and the LC50 (concentration killing 50% of cells) [11] was 53.2 µM. For the same molecule, the TGI [11] was 22.2 µM, the growth at 10 µM [12] was 28% and the growth at 10 µM [13] was -48%. It also gave a GI50 [14] of 1.88 µM, an LC50 [14] of 6.87 µM and a TGI [14] of 3.59 µM. It also gave a growth at 1 µM [15] of 97%, a growth at 10 µM [16] of -91% and a GI50 [17] of 2.32 µM. The LC50 (concentration killing 50% of cells) [17] was 76.2 µM, the TGI [17] was 7.38 µM and the GI50 [18] was 2.62 µM. The LC50 [18] was 36.3 µM, the TGI [18] was 7.94 µM and the growth at 0.1 µM [19] was 92%. For the same molecule, the growth at 1 µM [20] was 87%, the growth at 0.01 µM [21] was 89% and the GI50 [22] was 2.03 µM. For the same molecule, the LC50 (concentration killing 50% of cells) [22] was > 100 µM, the TGI [22] was 36.4 µM and the growth at 1 µM [23] was 114%. It also gave a growth at 0.01 µM [24] of 96%, a growth at 0.1 µM [25] of 110% and a GI50 [26] of 1.09 µM. For the same molecule, the LC50 [26] was 48.7 µM, the TGI [26] was 23 µM and the growth at 100 µM [27] was -95%. For the same molecule, the growth at 0.1 µM [28] was 96%, the growth at 0.01 µM [29] was 101% and the growth at 10 µM [30] was 20%. The growth at 0.01 µM [31] was 95%, the growth at 1 µM [32] was 77% and the growth at 0.1 µM [33] was 93%. The growth at 1 µM [34] was 86%, the growth at 1 µM [35] was 80% and the growth at 0.01 µM [36] was 83%.
